Numbers after ± are expanded uncertainties.
Key:
[1] = xn = mol fraction of the nth substance listed; settings: 298.15 K, 101 kPa, Liquid, Vibrating tube method
[2] = excess molar enthalpy (molar enthalpy of mixing); xn = mol fraction of the nth substance listed; settings: 298.15 K, 101 kPa, Liquid, Calvet calorimetry

BrCCCBr [1,3-dibromopropane] + CCCCOC=O
Settings	excess molar enthalpy [kcal/mol]	mass density [kg/m3]
[1], x2 = 0.055	–	1904.29 ± 1.1
[1], x2 = 0.1095	–	1839 ± 1
[1], x2 = 0.1626	–	1776.37 ± 0.97
[1], x2 = 0.2171	–	1712.74 ± 0.9
[1], x2 = 0.273	–	1648.68 ± 0.83
[1], x2 = 0.3252	–	1589.49 ± 0.77
[1], x2 = 0.5003	–	1397.08 ± 0.58
[1], x2 = 0.5617	–	1331.4 ± 0.52
[1], x2 = 0.6186	–	1271.46 ± 0.47
[1], x2 = 0.6866	–	1200.91 ± 0.41
[1], x2 = 0.8026	–	1082.84 ± 0.31
[1], x2 = 0.8655	–	1020.08 ± 0.26
[1], x2 = 0.9344	–	952.37 ± 0.25
[2], x2 = 0.0631	0.0155 ± 0.000478	–
[2], x2 = 0.1489	0.0306 ± 0.000717	–
[2], x2 = 0.2355	0.0397 ± 0.000956	–
[2], x2 = 0.3208	0.0435 ± 0.000956	–
[2], x2 = 0.3958	0.0428 ± 0.000956	–
[2], x2 = 0.4589	0.0409 ± 0.000956	–
[2], x2 = 0.5144	0.0378 ± 0.000956	–
[2], x2 = 0.5498	0.0356 ± 0.000956	–
[2], x2 = 0.5621	0.0344 ± 0.000717	–
[2], x2 = 0.6372	0.0289 ± 0.000717	–
[2], x2 = 0.7237	0.0227 ± 0.000478	–
[2], x2 = 0.8208	0.0143 ± 0.000478	–
[2], x2 = 0.9151	0.00693 ± 0.000239	–

CCCCOC(=O)CCC [butyl butanoate] + BrCCCCCBr
Settings	excess molar enthalpy [kcal/mol]	mass density [kg/m3]
[1], x1 = 0.0517	–	1642.59 ± 0.82
[1], x1 = 0.1033	–	1591.9 ± 0.77
[1], x1 = 0.1521	–	1545.03 ± 0.72
[1], x1 = 0.2029	–	1497.33 ± 0.68
[1], x1 = 0.2545	–	1449.85 ± 0.63
[1], x1 = 0.3101	–	1399.96 ± 0.58
[1], x1 = 0.3663	–	1350.58 ± 0.54
[1], x1 = 0.4214	–	1303.32 ± 0.49
[1], x1 = 0.478	–	1255.87 ± 0.45
[1], x1 = 0.6053	–	1153.05 ± 0.36
[1], x1 = 0.6591	–	1111.13 ± 0.33
[1], x1 = 0.7254	–	1060.71 ± 0.29
[1], x1 = 0.7885	–	1013.92 ± 0.25
[1], x1 = 0.8577	–	963.85 ± 0.24
[1], x1 = 0.9262	–	915.51 ± 0.24
[2], x1 = 0.0642	0.00645 ± 0.000239	–
[2], x1 = 0.1447	0.0108 ± 0.000239	–
[2], x1 = 0.2305	0.012 ± 0.000478	–
[2], x1 = 0.3193	0.00956 ± 0.000239	–
[2], x1 = 0.3711	0.00621 ± 0.000239	–
[2], x1 = 0.3957	0.0043 ± 0.000239	–
[2], x1 = 0.4159	0.000956 ± 0.000239	–
[2], x1 = 0.4621	-0.00359 ± 0.000239	–
[2], x1 = 0.4668	-0.00478 ± 0.000239	–
[2], x1 = 0.5278	-0.00932 ± 0.000239	–
[2], x1 = 0.6041	-0.0115 ± 0.000478	–
[2], x1 = 0.6965	-0.0129 ± 0.000478	–
[2], x1 = 0.806	-0.0115 ± 0.000478	–
[2], x1 = 0.9138	-0.00693 ± 0.000239	–
